The values below come from patent US20130012432A1, “Peptides for Treatment of Obesity” (Novo Nordisk A/S, priority 2010, published 2013).

For one data set, the target named is MC1 receptor (Homo sapiens, UniProt Q01726). Description: biochemical. Summed up:
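Radioligand competition on membranes (25 μg/ml) of BHK cells stably expressing MC1, with 22 pM final 125I-NDP-α-MSH in 25 mM HEPES pH 7.4, Ca/Mg, EDTA, 0.1% HSA (or ovalbumin), 0.005% Tween 20. Incubated 90 min at 30 °C, filtered over PEI-treated GF/B; curves fitted by non-linear regression.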

A further data set can be described thus: physchem. On the procedure: From a stock solution in vehicle, either H2O or 10 mM phosphate, containing 1 mg (as weighed) compound per ml, 8-11 aliquots are withdrawn and pH-adjusted individually with HCl/NaOH, to cover the whole pH range.
The mark [1] stands for this setting: pH 7.4, Solubility Conc., pH 7.4, vehicle 10 mM phosphate.
[2] abbreviates: pH 7.5, Solubility Conc., pH 7.5, vehicle 10 mM phosphate.
The mark [3] stands for this setting: pH 7.7, Solubility Conc., pH 7.7, vehicle 10 mM phosphate.

Molecules are shown by their SMILES. pKi: −log10 of the molar value. Values after ≈ are worked out from the molar mass of the structure shown. Positions of bridges follow the written chain, without caps; N, C: chain ends. Non-standard residues stand in square brackets, D forms with d. Residues, ends and D or L forms follow the SMILES beside them. Groups on a side chain read outwards from the residue. *: point of attachment. Palmitoyl(16-(5-tetrazolyl)) = O=C(CCCCCCCCCCCCCCCc1nnn[nH]1)*; Lys(CH2CO2H)2 = N[C@@H](CCCCN(CC(=O)O)CC(=O)O)C(=O)O; X1 = O=C(O)CCCCCCCCCCCCCCCCC(=O)NCCOCCOCCN*; C17 diacid = O=C(O)CCCCCCCCCCCCCCCC(=O)*; C16 diacid = O=C(O)CCCCCCCCCCCCCCC(=O)*; Hyp = O=C(O)[C@@H]1C[C@@H](O)CN1; NTA = O=C(O)CN(CC(=O)O)CC(=O)*; hCys = N[C@@H](CCS)C(=O)O; Orn = NCCC[C@H](N)C(=O)O; Dap = NC[C@H](N)C(=O)O; AEEA = NCCOCCOCC(=O)O

The term pKi denotes −log10 of the Ki, conventionally taken in molar units. For orientation: solubility means how much of the substance goes into solution per volume. A high value points to much dissolved substance.

MC1 receptor, sequence (Q01726 whole entry): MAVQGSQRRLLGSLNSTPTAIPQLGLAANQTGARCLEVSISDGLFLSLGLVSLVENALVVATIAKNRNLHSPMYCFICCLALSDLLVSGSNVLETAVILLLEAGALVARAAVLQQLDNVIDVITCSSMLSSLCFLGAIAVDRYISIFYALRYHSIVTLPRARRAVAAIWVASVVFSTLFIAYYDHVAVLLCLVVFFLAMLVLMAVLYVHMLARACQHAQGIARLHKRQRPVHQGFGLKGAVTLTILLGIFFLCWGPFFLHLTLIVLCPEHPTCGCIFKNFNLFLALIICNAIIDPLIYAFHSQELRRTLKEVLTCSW

Molecule `CC(=O)N[C@H]1CCCCNC(=O)C[C@@H](C(=O)N2CCC[C@H]2C(=O)N[C@@H](CO)C(=O)N[C@@H](CO)C(=O)N[C@@H](CO)C(=O)N[C@@H](CCCCN(CC(=O)O)CC(=O)O)C(=O)N[C@@H](CO)C(=O)N[C@@H](CO)C(=O)NCCOCCOCCNC(=O)CCCCCCCCCCCCCCCCC(=O)O)NC(=O)[C@H](Cc2c[nH]c3ccccc23)NC(=O)[C@H](CCCNC(=N)N)NC(=O)[C@@H](Cc2ccccc2)NC(=O)[C@H](Cc2c[nH]cn2)NC1=O` [Example 53, Ac-c[Lys-His-D-Phe-Arg-Trp-Asp]-Pro-Ser-Ser-Ser-Lys(biscarboxymethyl)-Ser-Ser-NH(2-{2-[2-(17-carboxyheptadecanoylamino)ethoxy]ethoxy}ethyl)] (Ac-KH[dF]RWDPSSS[Lys(CH2CO2H)2]SS-X1; lactam 1-6) gave a pKi at MC1 receptor of less than 5.00. For the same molecule, the solubility turned out to be 82 µM (≈ 173 µg/mL) in the data set “physchem” (pH 6.6, Solubility Conc., pH 6.6, vehicle 10 mM phosphate); 159 µM (≈ 336 µg/mL) in the data set “physchem” (pH 6.9, Solubility Conc., pH 6.9, vehicle 10 mM phosphate); 337 µM (≈ 713 µg/mL) in “physchem” (pH 7.2, Solubility Conc., pH 7.2, vehicle 10 mM phosphate); 396 µM (≈ 838 µg/mL) in the data set “physchem” (pH 7.3, Solubility Conc., pH 7.3, vehicle 10 mM phosphate); 410 µM (≈ 867 µg/mL) in the data set “physchem” (setting [1]); 385 µM (≈ 814 µg/mL) in “physchem” (setting [2]). The solubility in “physchem” (setting [3]) was found to be 393 µM (≈ 831 µg/mL); in “physchem” (pH 7.9, Solubility Conc., pH 7.9, vehicle 10 mM phosphate), 425 µM (≈ 899 µg/mL); in “physchem” (pH 8.2, Solubility Conc., pH 8.2, vehicle 10 mM phosphate), 403 µM (≈ 853 µg/mL).
For the molecule `CC(=O)N[C@H]1CCCNC(=O)CC[C@@H](C(=O)N2CCC[C@H]2C(=O)N[C@@H](CO)C(=O)N[C@@H](CO)C(=O)N[C@@H](CO)C(=O)N[C@@H](CCCCN(CC(=O)O)CC(=O)O)C(=O)N[C@@H](CO)C(=O)N[C@@H](CO)C(=O)N[C@@H](CCCCNC(=O)COCCOCCNC(=O)CCCCCCCCCCCCCCCC(=O)O)C(N)=O)NC(=O)[C@H](Cc2c[nH]c3ccccc23)NC(=O)[C@H](CCCNC(=N)N)NC(=O)[C@@H](Cc2ccccc2)NC(=O)[C@H](Cc2c[nH]cn2)NC1=O` [Example 57, Ac-c[Orn-His-D-Phe-Arg-Trp-Glu]-Pro-Ser-Ser-Ser-Lys(biscarboxymethyl)-Ser-Ser-Lys({2-[2-(16-carboxyhexadecanoylamino)ethoxy]ethoxy}acetyl)-NH2] (Ac-[Orn]H[dF]RWEPSSS[Lys(CH2CO2H)2]SSK([AEEA-C17 diacid])-NH2; lactam 1-6), on MC1 receptor, the pKi was less than 5.00. The solubility was 47 µM (≈ 105 µg/mL) in the data set “physchem” (pH 6.8, Solubility Conc., pH 6.8, vehicle 10 mM phosphate); 79 µM (≈ 177 µg/mL) in “physchem” (pH 7.1, Solubility Conc., pH 7.1, vehicle 10 mM phosphate); 169 µM (≈ 379 µg/mL) in “physchem” (setting [1]); 395 µM (≈ 886 µg/mL) in “physchem” (setting [2]); 521 µM (≈ 1170 µg/mL) in the data set “physchem” (pH 7.6, Solubility Conc., pH 7.6, vehicle 10 mM phosphate); 408 µM (≈ 915 µg/mL) in “physchem” (setting [3]). Moreover, the solubility in “physchem” (pH 7.8, Solubility Conc., pH 7.8, vehicle 10 mM phosphate) came to 524 µM (≈ 1180 µg/mL); in “physchem” (pH 8, Solubility Conc., pH 8.0, vehicle 10 mM phosphate) it was 392 µM (≈ 879 µg/mL). Besides, the “Solubility Conc.” value in the data set “physchem” (pH 7.5, vehicle 10 mM phosphate) was found to be 284 µM (≈ 637 µg/mL).
On MC1 receptor, `CC(=O)N[C@H]1CSSC[C@@H](C(=O)N2CCC[C@H]2C(=O)N2CCC[C@H]2C(=O)N[C@@H](CCCCN)C(=O)N[C@@H](CCC(=O)O)C(=O)N[C@@H](CCCCN(CC(=O)O)CC(=O)O)C(=O)N[C@@H](CCCCNC(=O)COCCOCCNC(=O)CCCCCCCCCCCCCCCc2nnn[nH]2)C(N)=O)NC(=O)[C@H](Cc2c[nH]c3ccccc23)NC(=O)[C@H](CCCNC(=N)N)NC(=O)[C@@H](Cc2ccccc2)NC(=O)[C@H](Cc2c[nH]cn2)NC(=O)[C@H](CCC(=O)O)NC1=O` [Example 63, Ac-c[Cys-Glu-His-D-Phe-Arg-Trp-Cys]-Pro-Pro-Lys-Glu-Lys(biscarboxymethyl)-Lys[(2-{2-[16-(tetrazol-5-yl)hexadecanoylamino]ethoxy}ethoxy)acetyl]-NH2] (Ac-CEH[dF]RWCPPKE[Lys(CH2CO2H)2]K([AEEA-Palmitoyl(16-(5-tetrazolyl))])-NH2; disulfide 1-7) showed a pKi of less than 5.00. Besides, the solubility in the data set “physchem” (pH 3.8, Solubility Conc.) is 33 µM (≈ 75.7 µg/mL); in the data set “physchem” (pH 4.2, Solubility Conc.), 23 µM (≈ 52.8 µg/mL); in “physchem” (pH 4.6, Solubility Conc.), 28 µM (≈ 64.3 µg/mL); in “physchem” (pH 5.1, Solubility Conc.), 78 µM (≈ 179 µg/mL); in the data set “physchem” (pH 6, Solubility Conc.), 484 µM (≈ 1110 µg/mL); in the data set “physchem” (pH 7.9, Solubility Conc.), 451 µM (≈ 1030 µg/mL). Besides, the solubility in the data set “physchem” (pH 8.1, Solubility Conc.) is 417 µM (≈ 957 µg/mL); in the data set “physchem” (pH 8.5, Solubility Conc.), 495 µM (≈ 1140 µg/mL); in “physchem” (pH 8.9, Solubility Conc.) it was 465 µM (≈ 1070 µg/mL).
In turn, `CC(=O)N[C@H]1CCSSC[C@@H](C(=O)N2CCC[C@H]2C(=O)N2CCC[C@H]2C(=O)N[C@@H](CCCCN)C(=O)N[C@@H](CC(=O)O)C(=O)N[C@@H](CNC(=O)CN(CC(=O)O)CC(=O)O)C(=O)N[C@@H](CCCCNC(=O)COCCOCCNC(=O)CCCCCCCCCCCCCCCc2nnn[nH]2)C(N)=O)NC(=O)[C@H](Cc2c[nH]c3ccccc23)NC(=O)[C@H](CCCNC(=N)N)NC(=O)[C@@H](Cc2ccccc2)NC(=O)[C@H](CCC(N)=O)NC1=O` [Example 66, Ac-c[homoCys-Gln-D-Phe-Arg-Trp-Cys]-Pro-Pro-Lys-Asp-Dap(BCMA)-Lys[(2-{2-[16-(tetrazol-5-yl)hexadecanoylamino]ethoxy}ethoxy)acetyl]-NH2] (Ac-[hCys]Q[dF]RWCPPKD[Dap](NTA)K([AEEA-Palmitoyl(16-(5-tetrazolyl))])-NH2; disulfide 1-6) had a pKi on MC1 receptor of less than 5.00. Besides, the solubility in the data set “physchem” (pH 4.8, Solubility Conc.) stood at 38 µM (≈ 82.5 µg/mL); in “physchem” (pH 6.4, Solubility Conc.), 390 µM (≈ 847 µg/mL); in the data set “physchem” (pH 6.5, Solubility Conc.), 474 µM (≈ 1030 µg/mL); in the data set “physchem” (pH 6.7, Solubility Conc.), 447 µM (≈ 971 µg/mL); in the data set “physchem” (pH 6.9, Solubility Conc.) it was 455 µM (≈ 988 µg/mL); in the data set “physchem” (pH 7.2, Solubility Conc.) it was 461 µM (≈ 1000 µg/mL). Further, the solubility in the data set “physchem” (pH 7.4, Solubility Conc.) was 478 µM (≈ 1040 µg/mL); in the data set “physchem” (pH 7.6, Solubility Conc.) it was 507 µM (≈ 1100 µg/mL); in “physchem” (pH 8.1, Solubility Conc.), 499 µM (≈ 1080 µg/mL).
Consider `CC(=O)N[C@H]1CCSSC[C@@H](C(=O)N2CCC[C@H]2C(=O)N2CCC[C@H]2C(=O)N[C@@H](CCCCN)C(=O)N[C@@H](CC(=O)O)C(=O)N[C@@H](CNC(=O)CN(CC(=O)O)CC(=O)O)C(=O)N[C@@H](CCCCNC(=O)COCCOCCNC(=O)CCCCCCCCCCCCCCCc2nnn[nH]2)C(N)=O)NC(=O)[C@H](Cc2c[nH]c3ccccc23)NC(=O)[C@H](CCCNC(=N)N)NC(=O)[C@@H](Cc2ccccc2)NC(=O)[C@@H]2C[C@@H](O)CN2C1=O` [Example 67, Ac-c[homoCys-Hyp-D-Phe-Arg-Trp-Cys]-Pro-Pro-Lys-Asp-Dap(BCMA)-Lys[(2-{2-[16-(tetrazol-5-yl)hexadecanoylamino]ethoxy}ethoxy)acetyl]-NH2] (Ac-[hCys][Hyp][dF]RWCPPKD[Dap](NTA)K([AEEA-Palmitoyl(16-(5-tetrazolyl))])-NH2; disulfide 1-6), for which the pKi at MC1 receptor was less than 5.00. For the same molecule, the solubility in “physchem” (pH 3.3, Solubility Conc.) is 600 µM (≈ 1290 µg/mL); in the data set “physchem” (pH 3.4, Solubility Conc.) it was 420 µM (≈ 906 µg/mL); in “physchem” (pH 3.6, Solubility Conc.), 250 µM (≈ 539 µg/mL); in the data set “physchem” (pH 4.1, Solubility Conc.), 37 µM (≈ 79.8 µg/mL); in the data set “physchem” (pH 5.4, Solubility Conc.) it was 38 µM (≈ 81.9 µg/mL); in “physchem” (pH 5.9, Solubility Conc.), 207 µM (≈ 446 µg/mL). Besides, the solubility in “physchem” (pH 6.3, Solubility Conc.) turned out to be 482 µM (≈ 1040 µg/mL); in “physchem” (pH 6.4, Solubility Conc.) it was 533 µM (≈ 1150 µg/mL); in “physchem” (pH 6.8, Solubility Conc.), 587 µM (≈ 1270 µg/mL); in the data set “physchem” (pH 7.3, Solubility Conc.) it was 590 µM (≈ 1270 µg/mL).
As for `CC(=O)N[C@H]1CCSSC[C@@H](C(=O)N2CCC[C@H]2C(=O)N2CCC[C@H]2C(=O)N[C@@H](CO)C(=O)N[C@@H](CCC(=O)O)C(=O)N[C@@H](CCCCN(CC(=O)O)CC(=O)O)C(=O)N[C@@H](CCCCNC(=O)COCCOCCNC(=O)CCCCCCCCCCCCCCC(=O)O)C(N)=O)NC(=O)[C@H](Cc2c[nH]c3ccccc23)NC(=O)[C@H](CCCNC(=N)N)NC(=O)[C@@H](Cc2ccccc2)NC(=O)[C@H](Cc2c[nH]cn2)NC1=O` [Example 70, Ac-c[homoCys-His-D-Phe-Arg-Trp-Cys]-Pro-Pro-Ser-Glu-Lys(biscarboxymethyl)-Lys({2-[2-(15-carboxypentadecanoylamino)ethoxy]ethoxy}acetyl)-NH2] (Ac-[hCys]H[dF]RWCPPSE[Lys(CH2CO2H)2]K([AEEA-C16 diacid])-NH2; disulfide 1-6), the pKi on MC1 receptor was less than 5.00. Also, the solubility in “physchem” (pH 3.4, Solubility Conc.) was 190 µM (≈ 399 µg/mL); in “physchem” (pH 3.9, Solubility Conc.) it was 65 µM (≈ 137 µg/mL); in “physchem” (pH 4.4, Solubility Conc.), 40 µM (≈ 84 µg/mL); in the data set “physchem” (pH 5.5, Solubility Conc.) it was 59 µM (≈ 124 µg/mL); in “physchem” (pH 5.6, Solubility Conc.) it was 142 µM (≈ 298 µg/mL); in “physchem” (pH 5.8, Solubility Conc.), 210 µM (≈ 441 µg/mL). Besides, the solubility in “physchem” (pH 6.1, Solubility Conc.) stood at 429 µM (≈ 901 µg/mL); in “physchem” (pH 7.5, Solubility Conc.) it was 444 µM (≈ 933 µg/mL); in “physchem” (pH 7.8, Solubility Conc.), 463 µM (≈ 973 µg/mL); in “physchem” (pH 8, Solubility Conc.) it was 440 µM (≈ 924 µg/mL).
